Reference: patent publication US20060057104A1, “Methods for stimulating tlr irf3 pathways for inducing anti-microbial, anti-inflammatory and anticancer responses” (THE Regents of the University of California Office of the …, priority 2002, published 2006)

Tested on: BMMs
Experiment: Quantitative real-time PCR gene expression in BMMs, wild-type and IFNAR deficient (Example 2)
Format: cell-based, murine
Conditions: for TLR3 mRNA production / TLR4 mRNA production: primary macrophages, by four hours; for TLR3 mRNA production / TLR4 mRNA production / IFN-β and IP10 induction at one hour: poly I:C 1 μg/ml, lipid A 1 ng/ml; for IFI-204 expression at one hour / IFN-β and IP10 induction at one hour: wild type and IFNAR knockout macrophages; for ICAM1 mRNA (induction control): wild-type and knockout cells, one and four hours
Method: Murine BMMs were stimulated with poly(I:C) (10 μg/ml) or lipid A (1 ng/ml) for the indicated times. Total RiNA was isolated and converted to cDNA for quantitative real-time PCR analysis using primers specific for IFN-β, IFI-204, IP10, IκBα, or L32. Experiments were repeated three times, and the data are presented in relative expression units on a log scale, as described in Example 2, infra.
Primary macrophage cells derived from bone marrow cells were stimulated with poly I:C (1 μg/ml) or lipid A (1 ng/ml) for the indicated times, as described in Example 2, infra.
(B) TLR3 and TLR4 mRNA levels were also assessed in cells deficient in IFNAR, and cells stimulated with rIFN-β (10, 100, and 1000 U). Experiments were repeated at least two separate times, and data are presented in relative expression units. L32 was used to normalize all samples.
Both wild-type cells and cells deficient in IFNAR were stimulated with poly I:C (1 μg/ml) or lipid A (1 ng/ml) for either 1 or 4 h. IFN-β, IP10, IFI-204, ICAM1, and L32 mRNA levels were assessed. Data are representative of three independent experiments and presented in relative expression units, as described in Example 2, infra.
Murine bone marrow-derived macrophages (BMMs) were differentiated from marrow as previously described (Doyle, S. E., S. A. Vaidya, R. O'Connell, H. Dadgostar, P. W. Dempsey, T.-T. Wu, G. Rao, R. Sun, M. E. Haberland, R. L. Modlin, and G. Cheng. 2002. IRF3 mediates a TLR3/TLR4-specific antiviral gene program. Immunity 17:251). A129 (IFNAR-1^−/−) (Muller, U., U. Steinhoff, L. F. L. Reis, S. Hemmi, J. Pavlovic, R. M. Zinkernagel, and M. Aguet. 1994. Functional role of type I and type II interferons in antiviral defense. Science 264:1918) and B6129SF2/J wild type control mice were obtained from B&K Universal Ltd. and Jackson Laboratories, respectively. C57/B6 mice were used for all experiments not involving the A129 mice (Jackson Laboratories). Specific TLR activation was achieved using F-583 (Rd mutant) E. coli lipid A for TLR4 (Sigma), CpG oligonucleotides for TLR9 (Invitrogen) and poly I:C for TLR3 (Pharmacia). For experiments employing the TIRAP/MAL inhibitory peptide (CN Biosciences), cells were pretreated for 1 hour with 20 μM peptide or DMSO alone. Cells were then stimulated with PAMPs in the presence of the inhibitory peptide. For experiments using murine rIFN-β (R&D Systems), wild-type macrophage cells were stimulated with 10, 100, or 1000 units. Viral infection and harvest was performed using MHV68 at an M.O.I. of 5 as previously described (Doyle, S. E., S. A. Vaidya, R. O'Connell, H. Dadgostar, P. W. Dempsey, T.-T. Wu, G. Rao, R. Sun, M. E. Haberland, R. L. Modlin, and G. Cheng. 2002. IRF3 mediates a TLR3/TLR4-specific antiviral gene program. Immunity 17:251).
RNA was isolated by standard guanidium isothiocyanate methods. cDNA template for quantitative realtime PCR analysis was then synthesized and PCR was performed using the iCycler thermocycler (Bio-Rad) as previously described (Doyle, S. E., S. A. Vaidya, R. O'Connell, H. Dadgostar, P. W. Dempsey, T.-T. Wu, G. Rao, R. Sun, M. E. Haberland, R. L. Modlin, and G. Cheng. 2002. IRF3 mediates a TLR3/TLR4-specific antiviral gene program. Immunity 17:251). IFN-βIP10, IκBα and IFI-204 primers were the same as those previously described (Doyle, S. E., S. A. Vaidya, R. O'Connell, H. Dadgostar, P. W. Dempsey, T.-T. Wu, G. Rao, R. Sun, M. E. Haberland, R. L. Modlin, and G. Cheng. 2002. IRF3 mediates a TLR3/TLR4-specific antiviral gene program. Immunity 17:251). For other genes, the following primers were used: […]

Substance | expression of MyD88 and TIRAP/MAL | IFI-204 expression by four hours, IFNAR knockout cells | IP10 expression by four hours, IFNAR knockout cells | TLR3 mRNA production | TLR4 mRNA production | IFI-204 expression by four hours, wild type cells | IP10 expression by four hours, wild type cells | IFI-204 expression at one hour | IFN-β and IP10 induction at one hour | ICAM1 mRNA (induction control) | induction of IFN-β, IP10 and IFI-204 relative to TLR4 agonist lipid A (BMMs, up to twelve hours, poly I:C 10 μg/ml vs lipid A 1 ng/ml)
lipid A | can induce the expression | not detectable | remained relatively unchanged | caused the induction of TLR3 | but not TLR4 | induced to high levels | significantly enhanced | remained at basal levels | induced by one hour | elevated by one hour and remained high by four hours | –
poly I:C | can induce the expression | not detectable | remained relatively unchanged | caused the induction of TLR3 | but not TLR4 | induced to high levels | significantly enhanced | remained at basal levels | induced by one hour | elevated by one hour and remained high by four hours | induced to higher levels and for extended periods of time
